Measured values as given in PubChem BioAssay (NCI).
Several values for one entry are separate records, joined by “and”; a condition that tells them apart may be missing. Identical values can stand only once.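 Dose response: 5 concentrations. Exposure: 48 h. Format: 96-well plates. Endpoint: linear interpolation; highest concentration if not reached. The concentration for full growth arrest is given as TGI.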

Experiments:
Experiment in all cases: inhibition of tumour cell growth, NCI panel, 48 h
M14 melanoma = test system: M14 melanoma
OVCAR-8 ovarian = test system: OVCAR-8 ovarian
MALME-3M melanoma = test system: MALME-3M melanoma
RXF 393 renal = test system: RXF 393 renal
NCI/ADR-RES ovarian = test system: NCI/ADR-RES ovarian
SW-620 colon = test system: SW-620 colon
SK-MEL-2 melanoma = test system: SK-MEL-2 melanoma
A549 NSCLC = test system: A549 NSCLC
UACC-62 melanoma = test system: UACC-62 melanoma
BT-549 breast = test system: BT-549 breast
EKVX NSCLC = test system: EKVX NSCLC
NCI-H522 lung = test system: NCI-H522 lung
HCC-2998 colon = test system: HCC-2998 colon
TK-10 renal = test system: TK-10 renal
SNB-19 CNS = test system: SNB-19 CNS
K-562 leukemia = test system: K-562 leukemia
NCI-H460 lung = test system: NCI-H460 lung
A498 renal = test system: A498 renal

SMILES	TGI (M14 melanoma)	TGI (OVCAR-8 ovarian)	TGI (MALME-3M melanoma)	TGI (RXF 393 renal)	TGI (NCI/ADR-RES ovarian)	TGI (SW-620 colon)	TGI (SK-MEL-2 melanoma)	TGI (A549 NSCLC)	TGI (UACC-62 melanoma)	TGI (BT-549 breast)	TGI (EKVX NSCLC)	TGI (NCI-H522 lung)	TGI (HCC-2998 colon)	TGI (TK-10 renal)	TGI (SNB-19 CNS)	TGI (K-562 leukemia)	TGI (NCI-H460 lung)	TGI (A498 renal)
CC1(c2nc3ccccc3[nH]2)CCC(C(N)=O)C(C)(C)O1 (configuration not stated)	> 100 µM	> 100 µM	> 100 µM	> 100 µM	> 100 µM	> 100 µM	> 100 µM	> 100 µM	> 100 µM	> 100 µM	> 100 µM	> 100 µM	> 100 µM	> 100 µM	> 100 µM	> 100 µM	–	–
Cc1c2cccc-2ccc2c1[nH]c1ccc(Br)cc12	20.9 µM	22.4 µM	21.5 µM	–	38.4 µM	25.2 µM	17.9 µM	17.5 µM	27.1 µM	20.7 µM	6.11 µM	6.29 µM	49.3 µM	32.2 µM	23.8 µM	11.8 µM	> 100 µM	37.9 µM
CC(C)c1c(O[Si](C(C)C)(C(C)C)C(C)C)c2c3c(ccc4c3c1OC4(C)C)C(C)CC2 (configuration not stated)	> 100 µM	> 100 µM	> 100 µM	> 100 µM	> 100 µM	> 100 µM	> 100 µM	> 100 µM	> 100 µM	–	> 100 µM	> 100 µM	–	> 100 µM	> 100 µM	> 100 µM	> 100 µM	> 100 µM
C/C1=C\[C@H](C)C[C@H](C)OC(=O)C[C@H](c2ccc(O)cc2)NC(=O)[C@H](Cc2ccc(O)c(Br)c2)N(C)C(=O)[C@H](C)NC(=O)[C@@H](C)C1	> 25 µM	> 25 µM	> 25 µM	–	> 25 µM	> 25 µM	> 25 µM	> 25 µM	> 25 µM	–	> 25 µM	> 25 µM	–	> 25 µM	> 25 µM	> 25 µM	–	> 25 µM
Cc1cc2c(cc1C)C(=O)C1(C2)Cc2c(ccc(C)c2C)C1=O (configuration not stated)	> 100 µM	> 100 µM	> 100 µM	> 100 µM	> 100 µM	> 100 µM	> 100 µM	> 100 µM	> 100 µM	> 100 µM	> 100 µM	> 100 µM	> 100 µM	> 100 µM	> 100 µM	> 100 µM	> 100 µM	–
Cc1ccc(CC2(OCCN(C)C)CCC(C(C)(C)C)CC2)cc1 (configuration not stated)	3.36 µM and 3.35 µM	16.1 µM and 24.1 µM	3.36 µM and 3.64 µM	–	21.5 µM and 22.3 µM	5.84 µM and 8 µM	4.96 µM and 5.35 µM	14 µM and 20.4 µM	5.48 µM and 10 µM	16.1 µM and 19.8 µM	21.6 µM and 28 µM	9.28 µM and 10.8 µM	4.26 µM and 4.73 µM	17.2 µM and 19.6 µM	16.6 µM and 16.8 µM	3.97 µM and 4.45 µM	3.71 µM and 3.57 µM	28.6 µM and 27.1 µM
O=c1cc(-c2ccccc2)oc2ccc(-c3ccc4oc(-c5ccccc5)cc(=O)c4c3)cc12	30.2 µM	35.2 µM	34.7 µM	–	51.5 µM	> 100 µM	32.7 µM	50.6 µM	31.8 µM	–	20.1 µM	–	30 µM	61.6 µM	50 µM	34.3 µM	41.9 µM	27.9 µM
